Legend:
Format in all cases: biochemical
mTOR C = target: T1, mTOR C (Homo sapiens, UniProt P42345); test: mTOR kinase inhibition assay (mTORC IC50); details: in vitro
T1 construct: purchased Invitrogen
Experimental: The cross-activity or lack thereof of one or more compounds of the present invention against mTor can be measured according to any procedures known in the art or methods disclosed below. The compounds described herein can be tested against recombinant mTOR (Invitrogen) in an assay containing 50 mM HEPES, pH 7.5, 1 mM EGTA, 10 mM MgCl2, 2.5 mM, 0.01% Tween, 10 μM ATP (2.5 μCi of […]), and 3 μg/mL BSA. Rat recombinant PHAS-1/4EBP1 (Calbiochem; 2 mg/mL) is used as a substrate. Reactions are terminated by spotting onto nitrocellulose, which is washed with 1M NaCl/1% phosphoric acid (approximately 6 times, 5-10 minutes each). Sheets are dried and the transferred radioactivity quantitated by phosphorimaging.
Other kits or systems for assaying mTOR activity are commercially available. For instance, one can use Invitrogen's LanthaScreen™ Kinase assay to test the inhibitors of mTOR disclosed herein. This assay is a time resolved FRET platform that measures the phosphorylation of GFP labeled 4EBP1 by mTOR kinase. The kinase reaction is performed in a white 384 well microtitre plate. The total reaction volume is 20 ul per well and the reaction buffer composition is 50 mM HEPES pH7.5, 0.01% Polysorbate 20, 1 mM EGTA, 10 mM MnCl2, and 2 mM DTT. In the first step, each well receives 2 ul of test compound in 20% dimethylsulphoxide resulting in a 2% DMSO final concentration. Next, 8 ul of mTOR diluted in reaction buffer is added per well for a 60 ng/ml final concentration. To start the reaction, 10 ul of an ATP/GFP-4EBP1 mixture (diluted in reaction buffer) is added per well for a final concentration of 10 μM ATP and 0.5 μM GFP-4EBP1. The plate is sealed and incubated for 1 hour at room temperature. The reaction is stopped by adding 10 ul per well of a Tb-anti-pT46 4EBP1 antibody/EDTA mixture (diluted in TR-FRET buffer) for a final concentration of 1.3 nM antibody and 6.7 mM EDTA. The plate is sealed, incubated for 1 hour at room temperature, and then read on a plate reader set up for LanthaScreen™ TR-FRET. Data is analyzed and IC50s are generated using GraphPad Prism 5.

PI3K β = target: T2, PI3K β (Homo sapiens, UniProt P42338); test: PI 3-Kinase HTRF inhibition assay, PI3K β; details: in vitro
T2 construct: purchased Upstate
Experimental: (§1) Commercial kits or systems for assaying PI3-K activities are available. The commercially available kits or systems can be used to screen for inhibitors and/or agonists of PI3-Ks including but not limited to PI 3-Kinase α, β, δ, and γ. An exemplary system is PI 3-Kinase (human) HTRF™ Assay from Upstate. […] Briefly, the assay is a time resolved FRET assay that indirectly measures PIP3 product formed by the activity of a PI3-K. The kinase reaction is performed in a microtitre plate (e.g., a 384 well microtitre plate). The total reaction volume is approximately 20 ul per well. In the first step, each well receives 2 ul of test compound in 20% dimethylsulphoxide resulting in a 2% DMSO final concentration. Next, approximately 14.5 ul of a kinase/PIP2 mixture (diluted in 1× reaction buffer) is added per well for a final concentration of 0.25-0.3 ug/ml kinase and 10 μM PIP2. The plate is scaled and incubated for 15 minutes at room temperature. To start the reaction, 3.5 ul of ATP (diluted in 1× reaction buffer) is added per well for a final concentration of 10 μM ATP. The plate is sealed and incubated for 1 hour at room temperature. The reaction is stopped by adding 5 ul of Stop Solution per well and then 5 ul of Detection Mix is added per well. The plate is sealed, incubated for 1 hour at room temperature, and then read on an appropriate plate reader. Data is analyzed and IC50s are generated using GraphPad Prism 5. For PI3K α, β, δ, and γ, the nM concentration of inhibitor to reach IC50 is provided. […] Similar assays, and others known in the art, can be used to measure the percent inhibition of other kinases, including but not limited to PI3K class II kinases, phosphoinositide 4 kinases (PI4K), and phosphoinositide 5 kinases (PI5K).

PI3K α = target: T3, PI3K α (Homo sapiens, UniProt P42336); test: PI 3-Kinase HTRF inhibition assay, PI3K α; details: in vitro; read-out: PI3K α IC50
T3 construct: purchased Upstate
Experimental: as §1

PI3K γ = target: T4, PI3K γ (Homo sapiens, UniProt P48736); test: PI 3-Kinase HTRF inhibition assay, PI3K γ; details: in vitro
T4 construct: purchased Upstate

PI3K δ = target: T5, PI3K δ (Homo sapiens, UniProt O00329); test: PI 3-Kinase HTRF inhibition assay, PI3K δ; details: in vitro; read-out: PI3K δ IC50
T5 construct: purchased Upstate
Experimental: as §1

T4 sequence (P48736 whole entry): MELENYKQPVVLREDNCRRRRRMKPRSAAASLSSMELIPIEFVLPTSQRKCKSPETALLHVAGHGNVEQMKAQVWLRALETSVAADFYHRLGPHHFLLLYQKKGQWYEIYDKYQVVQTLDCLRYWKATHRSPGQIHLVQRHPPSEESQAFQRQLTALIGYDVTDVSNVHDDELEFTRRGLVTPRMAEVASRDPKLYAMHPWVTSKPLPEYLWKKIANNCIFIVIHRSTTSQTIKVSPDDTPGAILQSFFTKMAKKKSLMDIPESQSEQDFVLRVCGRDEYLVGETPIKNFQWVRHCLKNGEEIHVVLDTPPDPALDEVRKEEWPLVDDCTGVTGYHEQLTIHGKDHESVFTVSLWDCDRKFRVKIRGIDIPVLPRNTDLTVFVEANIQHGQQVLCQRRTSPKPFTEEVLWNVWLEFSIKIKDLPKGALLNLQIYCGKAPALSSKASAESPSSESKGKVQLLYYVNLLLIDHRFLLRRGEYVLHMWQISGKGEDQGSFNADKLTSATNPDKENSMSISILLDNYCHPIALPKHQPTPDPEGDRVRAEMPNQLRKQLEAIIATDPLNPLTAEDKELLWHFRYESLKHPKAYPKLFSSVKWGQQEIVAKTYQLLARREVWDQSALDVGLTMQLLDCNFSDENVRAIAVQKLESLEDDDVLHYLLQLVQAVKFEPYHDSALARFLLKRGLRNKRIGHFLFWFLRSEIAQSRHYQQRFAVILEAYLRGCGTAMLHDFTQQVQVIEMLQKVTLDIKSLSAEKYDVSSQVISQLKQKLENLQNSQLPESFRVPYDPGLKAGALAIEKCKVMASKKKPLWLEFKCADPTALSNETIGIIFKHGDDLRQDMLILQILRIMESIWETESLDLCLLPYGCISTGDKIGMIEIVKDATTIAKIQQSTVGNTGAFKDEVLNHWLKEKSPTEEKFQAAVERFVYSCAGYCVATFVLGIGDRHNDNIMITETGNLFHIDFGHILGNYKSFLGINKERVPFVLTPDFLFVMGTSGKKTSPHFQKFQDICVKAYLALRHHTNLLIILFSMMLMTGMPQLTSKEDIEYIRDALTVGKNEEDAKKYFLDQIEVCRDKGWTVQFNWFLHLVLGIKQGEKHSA
T2 sequence (P42338 whole entry): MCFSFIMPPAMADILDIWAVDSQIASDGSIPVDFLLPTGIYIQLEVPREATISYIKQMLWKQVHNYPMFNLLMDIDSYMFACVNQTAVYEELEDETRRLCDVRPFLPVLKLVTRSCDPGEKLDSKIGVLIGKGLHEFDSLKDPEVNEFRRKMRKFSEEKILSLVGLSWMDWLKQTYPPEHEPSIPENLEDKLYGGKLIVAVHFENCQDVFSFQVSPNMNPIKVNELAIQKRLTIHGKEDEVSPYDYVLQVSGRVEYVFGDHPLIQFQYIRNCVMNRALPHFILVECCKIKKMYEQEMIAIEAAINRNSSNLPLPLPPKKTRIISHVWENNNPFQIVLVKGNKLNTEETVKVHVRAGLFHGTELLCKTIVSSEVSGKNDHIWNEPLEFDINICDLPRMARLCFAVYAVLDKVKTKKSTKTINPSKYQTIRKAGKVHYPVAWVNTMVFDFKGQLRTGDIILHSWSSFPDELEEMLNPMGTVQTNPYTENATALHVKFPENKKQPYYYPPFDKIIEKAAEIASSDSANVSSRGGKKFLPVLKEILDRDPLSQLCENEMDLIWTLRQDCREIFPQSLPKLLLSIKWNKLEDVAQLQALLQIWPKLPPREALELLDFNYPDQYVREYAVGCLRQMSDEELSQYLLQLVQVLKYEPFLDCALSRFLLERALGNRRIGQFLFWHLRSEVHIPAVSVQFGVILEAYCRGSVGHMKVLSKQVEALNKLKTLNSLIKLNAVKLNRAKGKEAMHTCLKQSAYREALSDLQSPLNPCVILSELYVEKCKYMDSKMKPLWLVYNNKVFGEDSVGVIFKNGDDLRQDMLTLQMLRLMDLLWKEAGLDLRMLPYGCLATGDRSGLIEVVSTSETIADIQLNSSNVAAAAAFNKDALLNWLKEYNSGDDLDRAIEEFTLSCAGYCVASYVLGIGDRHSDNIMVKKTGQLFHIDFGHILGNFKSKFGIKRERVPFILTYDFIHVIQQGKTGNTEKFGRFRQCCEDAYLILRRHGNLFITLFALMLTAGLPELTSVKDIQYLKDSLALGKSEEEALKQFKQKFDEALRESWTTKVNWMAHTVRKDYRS
T2 sequence (P27986 whole entry partner): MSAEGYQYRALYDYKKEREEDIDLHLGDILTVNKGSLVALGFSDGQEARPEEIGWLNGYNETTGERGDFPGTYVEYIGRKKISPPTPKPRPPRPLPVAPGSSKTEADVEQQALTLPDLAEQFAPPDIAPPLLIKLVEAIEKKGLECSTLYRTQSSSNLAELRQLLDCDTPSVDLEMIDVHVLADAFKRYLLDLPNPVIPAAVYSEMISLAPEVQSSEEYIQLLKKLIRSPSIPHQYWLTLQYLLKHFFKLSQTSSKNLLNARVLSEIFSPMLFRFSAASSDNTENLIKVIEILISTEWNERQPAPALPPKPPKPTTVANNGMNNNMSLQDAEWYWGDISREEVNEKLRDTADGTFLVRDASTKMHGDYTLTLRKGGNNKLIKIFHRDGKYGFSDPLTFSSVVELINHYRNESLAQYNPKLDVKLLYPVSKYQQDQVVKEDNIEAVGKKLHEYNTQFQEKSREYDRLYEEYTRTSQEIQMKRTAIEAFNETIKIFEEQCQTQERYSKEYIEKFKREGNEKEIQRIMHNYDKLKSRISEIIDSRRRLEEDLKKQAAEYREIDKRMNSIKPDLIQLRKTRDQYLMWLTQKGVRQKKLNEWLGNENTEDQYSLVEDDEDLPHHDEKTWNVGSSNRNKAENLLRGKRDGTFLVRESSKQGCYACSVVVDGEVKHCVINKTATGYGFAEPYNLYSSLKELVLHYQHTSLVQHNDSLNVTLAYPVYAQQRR
T5 sequence (O00329 whole entry): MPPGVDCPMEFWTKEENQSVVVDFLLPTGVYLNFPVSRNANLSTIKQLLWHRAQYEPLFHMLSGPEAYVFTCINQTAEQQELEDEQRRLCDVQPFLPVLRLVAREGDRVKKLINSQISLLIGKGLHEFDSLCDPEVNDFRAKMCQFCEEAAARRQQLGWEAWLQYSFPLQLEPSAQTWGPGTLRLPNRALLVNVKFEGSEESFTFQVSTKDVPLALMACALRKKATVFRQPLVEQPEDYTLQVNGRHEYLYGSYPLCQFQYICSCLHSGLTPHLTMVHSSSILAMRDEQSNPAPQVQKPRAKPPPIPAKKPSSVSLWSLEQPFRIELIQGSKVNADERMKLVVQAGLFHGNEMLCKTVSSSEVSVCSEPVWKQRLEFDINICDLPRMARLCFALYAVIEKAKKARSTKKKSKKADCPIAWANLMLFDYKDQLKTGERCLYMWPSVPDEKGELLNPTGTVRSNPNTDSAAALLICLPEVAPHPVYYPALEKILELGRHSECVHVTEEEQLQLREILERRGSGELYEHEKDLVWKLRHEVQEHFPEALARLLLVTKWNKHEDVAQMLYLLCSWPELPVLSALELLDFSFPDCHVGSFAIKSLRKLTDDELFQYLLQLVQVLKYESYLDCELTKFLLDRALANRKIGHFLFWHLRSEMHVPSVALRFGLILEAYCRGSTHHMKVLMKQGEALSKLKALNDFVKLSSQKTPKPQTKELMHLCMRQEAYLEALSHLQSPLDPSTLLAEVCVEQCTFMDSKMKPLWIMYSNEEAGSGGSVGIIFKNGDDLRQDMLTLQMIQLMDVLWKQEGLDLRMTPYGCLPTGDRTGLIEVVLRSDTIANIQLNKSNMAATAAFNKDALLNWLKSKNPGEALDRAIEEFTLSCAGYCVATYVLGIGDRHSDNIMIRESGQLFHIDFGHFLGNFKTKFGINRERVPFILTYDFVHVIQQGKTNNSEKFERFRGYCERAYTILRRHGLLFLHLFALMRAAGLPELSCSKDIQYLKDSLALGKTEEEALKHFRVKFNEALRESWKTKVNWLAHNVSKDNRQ
T5 sequence (P27986 whole entry partner): as the sequence (P27986 whole entry partner) above
T3 sequence (P42336 whole entry): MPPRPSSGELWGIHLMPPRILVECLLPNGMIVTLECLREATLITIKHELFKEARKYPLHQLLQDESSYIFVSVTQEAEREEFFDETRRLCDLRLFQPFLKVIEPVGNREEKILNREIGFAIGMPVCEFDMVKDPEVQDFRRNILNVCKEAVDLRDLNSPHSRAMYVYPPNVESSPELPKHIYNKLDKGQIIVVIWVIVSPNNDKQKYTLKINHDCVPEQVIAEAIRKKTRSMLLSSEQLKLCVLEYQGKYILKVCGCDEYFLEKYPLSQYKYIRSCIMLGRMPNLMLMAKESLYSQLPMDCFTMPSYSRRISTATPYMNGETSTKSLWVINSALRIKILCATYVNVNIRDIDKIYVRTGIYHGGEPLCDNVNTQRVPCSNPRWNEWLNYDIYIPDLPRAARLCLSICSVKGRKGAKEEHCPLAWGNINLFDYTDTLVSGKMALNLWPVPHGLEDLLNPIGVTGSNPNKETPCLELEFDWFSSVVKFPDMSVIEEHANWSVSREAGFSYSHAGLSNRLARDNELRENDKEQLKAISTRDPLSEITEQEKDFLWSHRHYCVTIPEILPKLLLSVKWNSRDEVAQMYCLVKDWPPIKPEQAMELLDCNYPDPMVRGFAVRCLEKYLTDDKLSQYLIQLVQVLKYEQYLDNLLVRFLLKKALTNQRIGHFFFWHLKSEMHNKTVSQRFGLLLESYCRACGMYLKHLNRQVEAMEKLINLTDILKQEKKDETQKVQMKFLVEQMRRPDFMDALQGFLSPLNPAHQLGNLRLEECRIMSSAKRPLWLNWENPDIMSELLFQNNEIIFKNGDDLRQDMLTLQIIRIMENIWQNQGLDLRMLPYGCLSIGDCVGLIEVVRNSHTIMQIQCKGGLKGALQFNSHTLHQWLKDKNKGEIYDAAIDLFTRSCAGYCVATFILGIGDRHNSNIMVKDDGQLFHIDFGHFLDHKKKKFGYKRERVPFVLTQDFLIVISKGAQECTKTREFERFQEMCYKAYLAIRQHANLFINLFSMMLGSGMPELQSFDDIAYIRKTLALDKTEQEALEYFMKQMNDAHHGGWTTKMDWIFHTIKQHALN
T3 sequence (P27986 whole entry partner): as the sequence (P27986 whole entry partner) above

SMILES	IC50 (mTOR C)	IC50 (PI3K β)	IC50 (PI3K α)	IC50 (PI3K γ)	IC50 (PI3K δ)
Nc1nc2cc(-c3ccc4ncc(N5C6CCC5COC6)nc4n3)ccc2o1 [Compound 19]	> 10 µM	> 10 µM	< 0.1 µM	< 0.1 µM	> 10 µM
CN1CC2CN(c3cnc4ccc(-c5ccc6oc(N)nc6c5)nc4n3)CC2C1 (stereo not shown) [Compound 78]	> 10 µM	< 1 µM	< 0.1 µM	< 10 µM	< 1 µM
CN1CC2CN(c3cnc4ccc(-c5ccc6oc(N)nc6c5)nc4c3)CC2C1 (stereo not shown) [Compound 79]	> 10 µM	< 1 µM	< 0.1 µM	< 1 µM	< 1 µM
CN1CCN(C2CN(c3cnc4ccc(-c5ccc6oc(N)nc6c5)nc4c3)C2)CC1(C)C [Compound 83]	–	< 1 µM	< 0.1 µM	< 1 µM	< 0.1 µM
CN1CCN(C2CN(c3ccc4ncc(-c5ccc6oc(N)nc6c5)cc4n3)C2)CC1 [Compound 84]	–	> 10 µM	< 10 µM	> 10 µM	> 10 µM
CC(C)N1CCN(C2CN(c3cnc4ccc(-c5ccc6nc(N)[nH]c6c5)nc4c3)C2)CC1 [Compound 85]	–	> 10 µM	< 0.1 µM	> 10 µM	> 10 µM
C[C@@H]1CN(C2CN(c3cnc4ccc(-c5ccc6nc(N)[nH]c6c5)nc4c3)C2)CCN1C [Compound 86]	–	> 10 µM	< 0.1 µM	> 10 µM	> 10 µM
CCN1CCN(C2CN(c3cnc4ccc(-c5ccc6nc(N)[nH]c6c5)nc4c3)C2)CC1 [Compound 87]	–	> 10 µM	< 0.1 µM	> 10 µM	> 10 µM
CN1CCN(C2CN(c3cnc4ccc(-c5ccc6nc(N)[nH]c6c5)nc4c3)C2)CC1 [Compound 88]	–	> 10 µM	< 0.1 µM	> 10 µM	> 10 µM
C[C@H]1CN(C2CN(c3cnc4ccc(-c5ccc6nc(N)[nH]c6c5)nc4c3)C2)CCN1C [Compound 89]	–	> 10 µM	< 0.1 µM	> 10 µM	> 10 µM
